Measurements: patent publication US20260272924A1, “ISOINDOLINE DERIVATIVE, BENZOINDOLE DERIVATIVE AND USE THEREOF” (SHANGHAI HELIOSON PHARMACEUTICAL CO., LTD., priority 2023, published 2026)

Experiments:
CRBN = biological target: T1, CRBN (Homo sapiens, UniProt Q96SW2); assay: CRBN binding assay (HTRF competition); conditions: GST-labeled CRBN WT protein, thalidomide-red competition, 3 hours; read-out: HTRF CRBN IC50
T1 construct: purchased Cisbio 64BDCRBNPEG
Description: Bonding activity between CRBN and compounds were detected by the HTRF competition assay using a CRBN binding kit (Cisbio, 64BDCRBNPEG). First, a reagent in the kit was equilibrated to room temperature and diluted to 1 fold with double-distilled water, and both the reagent and samples were uniformly mixed by thorough vortexing for later use. An europium-labeled specific GST antibody and an XL665-labeled thalidomide-red reagent (Cisbio, Cat No. 64BDCRBNPEG) were mixed in equal volumes in advance and then added into a 384-well white microplate at 10 μL per well. […] After uniform mixing, contents in the 384-well plate were sealed and incubated in the dark at room temperature for 3 hours.

IKZF1 = biological target: T2, IKZF1 (Homo sapiens, UniProt Q13422+Q96SW2); assay: Protein degradation assay (In-Cell Western), IKZF1; format: cell-based; conditions: NCI-H929 cells, 24 hours
T2 construct: NCI-H929 cells were inoculated into a 96-well plate at 100,000 cells per well and cultured overnight; endogenous in cells; host or cells: NCI-H929
Method: (§1) NCI-H929 cells were inoculated into a 96-well plate at 100,000 cells per well and cultured overnight. Compounds at concentrations of 1600 nM, 400 nM, 100 nM, 25 nM, 6.25 nM, 1.56 nM, 0.39 nM, and 0.1 nM were dosed with duplicate wells, and the cells were incubated in an incubator at 37° C. for 24 hours. After the incubation, the supernatant was removed by centrifugation, and 150 μL of 4% paraformaldehyde was added. The cells were incubated at room temperature for 20 minutes, then, 200 μL of a washing solution (0.1% TritonX-100, Beyotime; ST1722) was added and incubated at room temperature on a shaker. After repeating the washing four times, 150 μL of a Licor INTERCEPT blocking solution (Lico, Cat No. 927-70001) was added, and the cells were incubated on a shaker at room temperature for 1.5 hours. Antibodies IKZF1 (Cell Signaling; Cat No. 14859S), IKZF3 (Cell Signaling; Cat No. 15103S), GSPT1 (Proteintech, Cat No. 10763-1-AP), CK1a (Thermo; 7117067), and SALL4 (Abcam, ab22675) were diluted with an antibody dilution solution (Intercept Blocking Buffer, LI-COR, 211114) at 1:100 and 50 μL of each diluted primary antibody was added into the 96-well plate. The cells were incubated overnight on a shaker at 4° C. After the primary antibodies were removed and repeated washing was performed with PBST for 4 times, 50 μL of a diluted secondary antibody (Licor, Cat No. 926-68070) was added, and IRDye 800CW and IRDye 680CW were added at 0.5 μL simultaneously. The secondary antibody was sucked away, PBST was added, repeated washing was performed on a shaker at room temperature for 4 times, and a signal intensity was detected using an infrared laser imaging system (Lico, Odyssey-CLx).

[1] = system: NCI-H929 multiple myeloma cells; assay: Cell Titer-GLO (CTG) assay for proliferation of NCI-H929 cells; format: cell-based; conditions: Homo sapiens, 72 hours
In short: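 NCI-H929 cells, 5000/well, treated next day with compound from 0.00512 to 400 nM (5-fold steps, duplicates) for 72 h at 37° C. Viability by CellTiter-Glo luminescence, normalised to 0.1% DMSO and medium blank; IC50 and maximal inhibition from nonlinear dose-response regression.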

IKZF3 = biological target: T3, IKZF3 (Homo sapiens, UniProt Q96SW2+Q9UKT9); assay: Protein degradation assay (In-Cell Western), IKZF3; format: cell-based; conditions: NCI-H929 cells, 24 hours
T3 construct: endogenous in cells; host or cells: NCI-H929
Method: as §1

[2] = patients, literature; cited from earlier work

SMILES	IC50 (CRBN)	DC50 (IKZF1)	Dmax (IKZF1)	IC50 [1]	DC50 (IKZF3)	Dmax (IKZF3)	incidence rate of G3/G4 neutropenia [2]
O=C1CCC(N2C(=O)c3cccc4c(Cc5ccc(CN6CCN(c7ccnc(-n8cnc(C(F)(F)F)c8)n7)CC6)cc5)ccc2c34)C(=O)N1 (stereo not shown) [Example 25, 3-(2-oxo-6-(4-((4-(2-(4-(trifluoromethyl)-1H-imidazol-1-yl)pyrimidin-4-yl)piperazin-1-yl)methyl)benzyl)benzo[cd]indol-1(2H)-yl)piperidin-2,6-dione]	38 nM	0.98 nM	60%	0.04 nM	0.075 nM	76.2%	
O=C1CCC(N2C(=O)c3cccc4c(Cc5ccc(CN6CCN(C(=O)c7ccnc(-n8ccnc8)n7)CC6)cc5)ccc2c34)C(=O)N1 (stereo not shown) [Example 5, 3-(6-(4-((4-(2-(1H-imidazol-1-yl)pyrimidin-4-carbonyl)piperazin-1-yl)methyl)benzyl)-2-oxobenzo[cd]indol-1(2H)-yl)piperidin-2,6-dione]		0.23 nM	68.4%	0.06 nM	0.12 nM	73.8%	
Nc1cccc2c1C(=O)N(C1CCC(=O)NC1=O)C2=O (stereo not shown) [pomalidomide]							approximately 50%
Nc1cccc2c1CN(C1CCC(=O)NC1=O)C2=O (stereo not shown) [lenalidomide]							up to 35%
Cc1ncc(-c2nc(N3CCN(Cc4ccc(Cc5ccc6c7c(cccc57)C(=O)N6C5CCC(=O)NC5=O)cc4)CC3)cc(C(F)(F)F)n2)s1 (stereo not shown) [Example 21, 3-(6-(4-((4-(2-(2-methylthiazol-5-yl)-6-(trifluoromethyl)pyrimidin-4-yl)piperazin-1-yl)methyl)benzyl)-2-oxobenzo[cd]indol-1(2H)-yl)piperidin-2,6-dione]	34 nM	8.86 nM	57.1%	0.2 nM	0.22 nM	74.1%	
O=C1CCC(N2C(=O)c3cccc4c(Cc5ccc(CN6CCN(C(=O)c7cccc(-n8ccnc8)n7)CC6)cc5)ccc2c34)C(=O)N1 (stereo not shown) [Example 4, 3-(6-(4-((4-(6-(1H-imidazol-1-yl)pyridin-2-carbonyl)piperazin-1-yl)methyl)benzyl)-2-oxobenzo[cd]indol-1(2H)-yl)piperidin-2,6-dione]		0.38 nM	73.6%	0.03 nM	0.19 nM	70.3%	
O=C1CCC(N2C(=O)c3cccc4c(Cc5ccc(CN6CCN(c7cc(C(F)(F)F)nc(-n8cnc(Cl)c8)n7)CC6)cc5)ccc2c34)C(=O)N1 (stereo not shown) [Example 74, 3-(6-(4-((4-(2-(4-chloro-1H-imidazol-1-yl)-6-(trifluoromethyl)pyrimidin-4-yl)piperazin-1-yl)methyl)benzyl)-2-oxobenzo[cd]indol-1(2H)-yl)piperidin-2,6-dione]				0.1 nM			
Cc1ncn(-c2nc(N3CCN(Cc4ccc(Cc5ccc6c7c(cccc57)C(=O)N6C5CCC(=O)NC5=O)cc4)CC3)cc(C(F)(F)F)n2)n1 (stereo not shown) [Example 69, 3-(6-(4-((4-(2-(3-methyl-1H-1,2,4-triazol-1-yl)-6-(trifluoromethyl)pyrimidin-4-yl)piperazin-1-yl)methyl)benzyl)-2-oxobenzo[cd]indol-1(2H)-yl)piperidin-2,6-dione]				0.04 nM			

Further compounds by falling IC50 [1], results first:

IC50 (CRBN)	DC50 (IKZF1)	Dmax (IKZF1)	IC50 [1]	DC50 (IKZF3)	Dmax (IKZF3)	SMILES	incidence rate of G3/G4 neutropenia [2]
	0.31 nM	75.8%	0.03 nM	0.12 nM	71.4%	O=C1CC[C@H](N2Cc3c(OCc4ccc(CN5CCN(c6ccnc(-n7ccnc7)n6)CC5)cc4)cccc3C2=O)C(=O)N1 [Example 1, (S)-3-(4-((4-((4-(2-(1H-imidazol-1-yl)pyrimidin-4-yl)piperazin-1-yl)methyl)benzyl)oxy)-1-oxoisoindolin-2-yl)piperidin-2,6-dione]	
20 nM	0.1 nM	65.3%	0.02 nM	0.056 nM	76.4%	Cc1nnc(-c2cccc(N3CCN(Cc4ccc(Cc5ccc6c7c(cccc57)C(=O)N6C5CCC(=O)NC5=O)cc4)CC3)n2)s1 (stereo not shown) [Example 22, 3-(6-(4-((4-(6-(5-methyl-1,3,4-thiadiazol-2-yl)pyridin-2-yl)piperazin-1-vA)methyl)benzyl)-2-oxobenzo[cd]indol-1(2H)-yl)piperidin-2,6-dione]	
			0.02 nM			Cn1c(-c2nccc(N3CCN(Cc4ccc(Cc5ccc6c7c(cccc57)C(=O)N6C5CCC(=O)NC5=O)cc4)CC3)n2)cnc1C(F)(F)F (stereo not shown) [Example 61, 3-(6-(4-((4-(2-(1-methyl-2-(trifluoromethyl)-1H-imidazol-5-yl)pyrimidin-4-yl)piperazin-1-yl)methyl)benzyl)-2-oxobenzo[cd]indol-1(2H)-yl)piperidin-2,6-dione]	
	0.34 nM	77%	0.01 nM	0.16 nM	75%	Cc1nc(N2CCN(Cc3ccc(Cc4ccc5c6c(cccc46)C(=O)N5[C@@H]4CCC(=O)NC4=O)cc3)CC2)cc(-n2cnc(C(F)(F)F)c2)n1 [Example 31, (R)-3-(6-(4-((4-(2-methyl-6-(4-(trifluoromethyl)-1H-imidazol-1-yl)pyrimidin-4-yl)piperazin-1-yl)methyl)benzyl)-2-oxobenzo[cd]indol-1(2H)-yl)piperidin-2,6-dione]	
8 nM			0.01 nM			Cc1ncn(-c2cccc(N3CCN(Cc4ccc(Cc5ccc6c7c(cccc57)C(=O)N6[C@H]5CCC(=O)NC5=O)cc4)CC3)n2)n1 [Example 37, (S)-3-(6-(4-((4-(6-(3-methyl-1H-1,2,4-triazol-1-yl)pyridin-2-yl)piperazin-1-yl)methyl)benzyl)-2-oxobenzo[cd]indol-1(2H)-yl)piperidin-2,6-dione]	
27 nM	0.37 nM	74.1%	0.01 nM	0.093 nM	73.2%	Cc1nc(N2CCN(Cc3ccc(Cc4ccc5c6c(cccc46)C(=O)N5[C@H]4CCC(=O)NC4=O)cc3)CC2)cc(-n2cnc(C(F)(F)F)c2)n1 [Example 30, (S)-3-(6-(4-((4-(2-methyl-6-(4-(trifluoromethyl)-1H-imidazol-1-yl)pyrimidin-4-yl)piperazin-1-yl)methyl)benzyl)-2-oxobenzo[cd]indol-1(2H)-yl)piperidin-2,6-dione]	
19 nM	0.077 nM	65.8%	0.01 nM	0.036 nM	77.1%	Cc1ncn(-c2cccc(N3CCN(Cc4ccc(Cc5ccc6c7c(cccc57)C(=O)N6C5CCC(=O)NC5=O)cc4)CC3)n2)n1 (stereo not shown) [Example 23, 3-(6-(4-((4-(6-(3-methyl-1H-1,2,4-triazol-1-yl)pyridin-2-yl)piperazin-1-yl)methyl)benzyl)-2-oxobenzo[cd]indol-1(2H)-yl)piperidin-2,6-dione]	
			0.01 nM			Cn1cncc1-c1nccc(N2CCN(Cc3ccc(Cc4ccc5c6c(cccc46)C(=O)N5C4CCC(=O)NC4=O)cc3)CC2)n1 (stereo not shown) [Example 20, 3-(6-(4-((4-(2-(1-methyl-1H-imidazol-5-yl)pyrimidin-4-yl)piperazin-1-yl)methyl)benzyl)-2-oxobenzo[cd]indol-1(2H)-yl)piperidin-2,6-dione]	
			0.01 nM			Cc1nc(N2CCN(Cc3ccc(Cc4ccc5c6c(cccc46)C(=O)N5C4CCC(=O)NC4=O)cc3)CC2)cc(-n2cnc(C#N)c2)n1 (stereo not shown) [Example 51, 3-(6-(4-((4-(6-(-4-cyano-1H-imidazol-1-yl)-2-methylpyrimidin-4-yl)piperazin-1-yl)methyl)benzyl)-2-oxobenzo[cd]indol-1(2H)-yl)piperidin-2,6-dione]	
	0.081 nM	73.6%	0.003 nM	0.05 nM	76.6%	O=C1CCC(N2C(=O)c3cccc4c(Cc5ccc(CN6CCN(c7ccnc(-n8ccnc8)n7)CC6)cc5)ccc2c34)C(=O)N1 (stereo not shown) [Example 3, 3-(6-(4-((4-(2-(1H-imidazol-1-yl)pyrimidin-4-yl)piperazin-1-yl)methyl)benzyl)-2-oxobenzo[cd]indol-1(2H)-yl)piperidin-2,6-dione]	
